Results as given in patent US20230357179A1, “RAF KINASE INHIBITORS AND METHODS OF USE THEREOF” (Deciphera Pharmaceuticals, LLC, priority 2021, published 2023).

Experiments:
[1] = tested on: WM3928 cells; experiment: WM3928 cell proliferation assay (1), resazurin, 96-well; format: cell-based; conditions: inhibition of cell proliferation
Experimental: WM3928 Cell Proliferation Assay (1)
WM3928 cells (#WM3928-01-0001) are obtained from Rockland Immunochemicals Inc (Gilbertsville, PA). Briefly, cells were grown in MCDB 153 medium (Sigma, #M7403, St. Louis, MO) supplemented with 20% Leibovitz's L-15 (ThermoFisher #11415-064, Waltham, MA), 2% heat inactivated fetal bovine serum (ThermoFisher, #A3840001, Waltham, MA), 5 μg/mL Insulin (Bovine Pancreas) (Sigma, #I0516, St. Louis, MO), 1.68 mM Calcium Chloride (Sigma, #C-34006, St. Louis, MO) and 1% Penicillin/Streptomycin/L-Glutamine (ThermoFisher #10378016, Waltham, MA) at 37° C., 5% CO2, and 95% humidity. Cells are expanded until reaching 70-95% confluency at which point they are subcultured or harvested for assay use. A serial dilution of test compound is dispensed into a 96-well black clear bottom plate in triplicate. Three thousand cells are added per well in 200 μL complete growth medium in the 96-well plate. Plates are incubated for 67-72 hours at 37° C., 5% CO2, and 95% humidity. At the end of the incubation, 40 μL of a 440 μM solution of resazurin (Sigma, #199303, St. Louis, MO) in PBS is added to each well of the plate and plates are incubated for an additional 6-7 hours at 37° C., 5% CO2, and 95% humidity. Plates are read on a Synergy2 or equivalent reader (Biotek, Winooski VT) using an excitation of 540 nm and an emission of 600 nm. Data is analyzed using Prism software (GraphPad, San Diego, CA) to calculate IC50 values.

[2] = tested on: H2405 cells; experiment: H2405 cell proliferation assay (1), resazurin, 96-well; format: cell-based; conditions: Homo sapiens, NCI-H2405, inhibition of cell proliferation
Experimental: H2405 Cell Proliferation Assay (1)
H2405 cells (catalog #CRL-5944) are obtained from the American Type Culture Collect (ATTC, Manassas, VA). Briefly, cells were grown in RPMI 1640 supplemented with 5% characterized fetal bovine serum (Invitrogen, Carlsbad, CA) and 1% Penicillin/Streptomycin/L-Glutamine at 37° C., 5% CO2, and 95% humidity. Cells are expanded until reaching 70-95% confluency at which point they are subcultured or harvested for assay use. A serial dilution of test compound is dispensed into a 96-well black clear bottom plate in triplicate. Three thousand cells are added per well in 200 μL complete growth medium in the 96-well plate. Plates are incubated for 67-72 hours at 37° C., 5% CO2, and 95% humidity. At the end of the incubation, 40 μL of a 440 μM solution of resazurin (Sigma, St. Louis, MO) in PBS is added to each well of the plate and plates are incubated for an additional 5-6 hours at 37° C., 5% CO2, and 95% humidity. Plates are read on a Synergy2 or equivalent reader (Biotek, Winooski VT) using an excitation of 540 nm and an emission of 600 nm. Data is analyzed using Prism software (GraphPad, San Diego, CA) to calculate IC50 values.

[3] = target: T1, B-Raf kinase (Homo sapiens, UniProt P15056); experiment: Biochemical assay for B-Raf.1 (coupled pyruvate kinase/lactate dehydrogenase); conditions: read-out: BRAF.1 IC50
T1 construct: GST (N); purchased Sigma
How it was run: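 NADH oxidation followed at 340 nm in a pyruvate kinase/lactate dehydrogenase-coupled assay with 0.13 nM B-Raf, 30.1 nM MEK substrate, 1 mM ATP, pH 7.5 Tris buffer, 1% DMSO. Monitored 6 h at 30 °C; rate taken from 4–5 h. IC50 from four-parameter sigmoidal fit.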

[4] = tested on: Miapaca-2 cells; experiment: MiaPaca-2 cell proliferation assay (1), resazurin, 96-well; format: cell-based; conditions: Homo sapiens, MIA PaCa-2, inhibition of cell proliferation
How it was run: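 Three thousand cells per well in DMEM with 10% FBS and 2.5% horse serum exposed to serially diluted compound in triplicate for 67-72 h at 37 °C, 5% CO2. Viability by resazurin (additional 5-6 h), fluorescence ex 540/em 600 nm; IC50 calculated.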

T1 sequence (P15056 416-766): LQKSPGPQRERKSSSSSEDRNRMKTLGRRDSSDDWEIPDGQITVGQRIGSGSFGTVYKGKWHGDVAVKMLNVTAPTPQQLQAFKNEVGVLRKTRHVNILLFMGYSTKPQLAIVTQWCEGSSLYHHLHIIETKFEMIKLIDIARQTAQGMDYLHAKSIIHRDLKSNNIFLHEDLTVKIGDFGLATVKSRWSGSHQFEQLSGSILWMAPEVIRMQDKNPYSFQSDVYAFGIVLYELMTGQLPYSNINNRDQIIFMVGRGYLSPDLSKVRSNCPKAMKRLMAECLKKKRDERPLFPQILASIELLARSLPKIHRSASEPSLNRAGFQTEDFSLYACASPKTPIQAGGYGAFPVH

Row | IC50 [2] | IC50 [3] | IC50 [4] | SMILES | IC50 [1]
1 | 100 to 500 nM | ≤ 100 nM | 1000 to 10000 nM | Cc1ncc(NC(=O)NC2CC(C)(C)C2)cc1-c1cc(OCCO)nc(-c2ccnc(NC(=O)C3CC3)c2)n1 [Example 144] | 500 to 1000 nM
2 | ≤ 100 nM | ≤ 100 nM | 1000 to 10000 nM | Cc1cc(F)c(NC(=O)NCCC(C)(C)C)cc1-c1cc(OCCO)nc(C2=CCOCC2)c1 [Example 7] | 100 to 500 nM
